Test results taken from patent US20230021483A1, “[…] […] METHOD AND CLASSIFICATION OF PHARMACEUTICAL COMPONENTS BY USING TRANSCRIPTOMES” (National Institutes of Biomedical Innovation, Health and …, priority 2016, published 2023).

How the values were obtained:
Format in all cases: in vivo, C57BL/6 mice
spleen (SP) = assay: Whole organ transcriptome (GeneChip microarray) of spleen 6 h after adjuvant administration: sDEGs, hierarchical clustering; conditions: i.d. administration
[1] = test system: inguinal lymph nodes (LN); assay: Whole organ transcriptome (GeneChip microarray) of draining inguinal lymph nodes 6 h after adjuvant administration: sDEGs, gene modules, hierarchical clustering; conditions: lymph node; for adjuvant group (cluster) in LN: key: G1 (interferon signaling); G2 (metabolism of lipids and lipoproteins); G3 (response to stress); G4 (response to wounding); G5 (phosphate-containing compound metabolic process); G6 (phagosome)
LV, SP and LNs = assay: Whole organ transcriptome across organs (adjuvant gene space): gene responses and adjuvant grouping
[2] = test system: preferentially upregulated genes in LV, SP, LN; assay: Z-score-based differential gene expression analysis (adjuvant group- or adjuvant-associated genes, 40 module mapping, TargetMine annotation); conditions: ID, LV
In short: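 Gene groups for each organ were built from combined z-score cutoffs across adjuvants, ranging from z>1 to z>3. Scores came from fold changes standardized per gene over the whole organ data set, with the three replicate z-scores added per adjuvant; sums above 3 marked preferential expression.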

For Monophosphoryl lipid A [MPLA], the “Number of gene probes with statistically significant changes (sDEGs), SP, Down” value (spleen (SP); fold change <0.667, p<0.01, customized PA call=1, 6 h after adjuvant) was 22, the “Number of gene probes with statistically significant changes (sDEGs), SP, Up” value (spleen (SP); fold change >1.5, p<0.01, customized PA call=1, 6 h after adjuvant) was 9 and the “adjuvant group (cluster) in LN” value ([1]; hierarchical clustering) was “G1”. The “Number of gene probes with statistically significant changes (sDEGs), LN, Down” value ([1]; i.d. administration, fold change <0.667, p<0.01, customized PA call=1, 6 h after adjuvant) was 18, the “Number of gene probes with statistically significant changes (sDEGs), LN, Up” value ([1]; i.d. administration, fold change >1.5, p<0.01, customized PA call=1, 6 h after adjuvant) was 8 and the “consistency of gene responses among individual mice and organs” value (LV, SP and LNs; 6 h, FIG. 5) was “varying gene responses among the individual mice and organs”. For the same substance, the “distribution/strength of gene responses between local LNs and systemic organs (LV, SP)” value (LV, SP and LNs; 6 h after i.d. (local) administration) was “acted on local LNs but not in the systemic remote organs”, the “Adar 1425405_a_at (Group G1, Modules 20)” value ([2]; sample x1) was −0.2 and the “Adar 1434268_at (Group G1, Modules 20)” value ([2]; sample x1) was −0. For the same substance, the “Ddx58 1436562_at (Group G1, Modules 20)” value ([2]; sample x1) was −0.3, the “Ddx58 1456890_at (Group G1, Modules 20)” value ([2]; sample x1) was −0.2 and the “Eif2ak2 1422005_at (Group G1, Modules 20)” value (from here on “Eif2ak2 1422005_at”) ([2]; sample x1) was −0.3. The “G3bp2 1421323_a_at (Group G1, Modules 20)” value (“G3bp2 1421323_a_at” for short) ([2]; sample x1) was −0.3, the “Gm9706///Isg15 1431591_s_at (Group G1, Modules 20)” value (“Gm9706///Isg15 1431591_s_at” for short) ([2]; sample x1) was −0.5 and the “H2-T10///H2-T22///H2-T9 1449875_s_at (Group G1, Modules 20)” value (from here on “H2-T10///H2-T22///H2-T9 1449875_s_at”) ([2]; sample x1) was −0.3. For the same substance, the “Ifih1 1426276_at (Group G1, Modules 20)” value ([2]; sample x1) was −0.4, the “Ifit1 1450783_at (Group G1, Modules 20)” value ([2]; sample x1) was −0.5 and the “Ifit3 1449025_at (Group G1, Modules 20)” value ([2]; sample x1) was −0.5. The “Irf7 1417244_a_at (Group G1, Modules 20)” value ([2]; sample x1) was −0.4, the “Irgm1 1418825_at (Group G1, Modules 20)” value ([2]; sample x1) was −0.4 and the “Mndal 1426906_at (Group G1, Modules 20)” value ([2]; sample x1) was −0.2. The “Pml 1448757_at (Group G1, Modules 20)” value ([2]; sample x1) was −0.4, the “Pml 1456103_at (Group G1, Modules 20)” value ([2]; sample x1) was −0.3 and the “Rnf213 1455500_at (Group G1, Modules 20)” value ([2]; sample x1) was −0.4. For the same substance, the “Rsad2 1436058_at (Group G1, Modules 20)” value ([2]; sample x1) was −0.5, the “Shisa5 1423986_a_at (Group G1, Modules 20)” value (shortened to “Shisa5 1423986_a_at”) ([2]; sample x1) was −0.2 and the “Shisa5 1437503_a_at (Group G1, Modules 20)” value (shortened to “Shisa5 1437503_a_at”) ([2]; sample x1) was −0.3. The “Stat1 1450033_a_at (Group G1, Modules 20)” value (shortened to “Stat1 1450033_a_at”) ([2]; sample x1) was −0.5, the “Stat1 1450034_at (Group G1, Modules 20)” value ([2]; sample x1) was −0.4 and the “Tdrd7 1426716_at (Group G1, Modules 20)” value ([2]; sample x1) was −0.3. The “Tor1aip2 1418115_s_at (Group G1, Modules 20)” value (from here on “Tor1aip2 1418115_s_at”) ([2]; sample x1) was −0.4, the “Tor1aip2 1418116_at (Group G1, Modules 20)” value (“Tor1aip2 1418116_at” below) ([2]; sample x1) was −0 and the “Tor1aip2 1435526_at (Group G1, Modules 20)” value (“Tor1aip2 1435526_at” for short) ([2]; sample x1) was −0.2. The “Trim12a 1437432_a_at (Group G1, Modules 20)” value (from here on “Trim12a 1437432_a_at”) ([2]; sample x1) was −0.4, the “Uba7 1426970_a_at (Group G1, Modules 20)” value ([2]; sample x1) was −0.1 and the “Adar 1425405_a_at (Group G1, Modules 20)” value ([2]; sample x2) was −0.4. The “Adar 1434268_at (Group G1, Modules 20)” value ([2]; sample x2) was −0.3, the “Ddx58 1436562_at (Group G1, Modules 20)” value ([2]; sample x2) was −0.4 and the “Ddx58 1456890_at (Group G1, Modules 20)” value ([2]; sample x2) was −0.1. The “Eif2ak2 1422005_at” value ([2]; sample x2) was −0.4, the “G3bp2 1421323_a_at” value ([2]; sample x2) was −0.6 and the “Gm9706///Isg15 1431591_s_at” value ([2]; sample x2) was −0.5. The “H2-T10///H2-T22///H2-T9 1449875_s_at” value ([2]; sample x2) was −0.3, the “Ifih1 1426276_at (Group G1, Modules 20)” value ([2]; sample x2) was −0.4 and the “Ifit1 1450783_at (Group G1, Modules 20)” value ([2]; sample x2) was −0.5. For the same substance, the “Ifit3 1449025_at (Group G1, Modules 20)” value ([2]; sample x2) was −0.5, the “Irf7 1417244_a_at (Group G1, Modules 20)” value ([2]; sample x2) was −0.5 and the “Irgm1 1418825_at (Group G1, Modules 20)” value ([2]; sample x2) was −0.5. For the same substance, the “Mndal 1426906_at (Group G1, Modules 20)” value ([2]; sample x2) was −0.4, the “Pml 1448757_at (Group G1, Modules 20)” value ([2]; sample x2) was −0.3 and the “Pml 1456103_at (Group G1, Modules 20)” value ([2]; sample x2) was −0.4. For the same substance, the “Rnf213 1455500_at (Group G1, Modules 20)” value ([2]; sample x2) was −0.5, the “Rsad2 1436058_at (Group G1, Modules 20)” value ([2]; sample x2) was −0.5 and the “Shisa5 1423986_a_at” value ([2]; sample x2) was −0.4. For the same substance, the “Shisa5 1437503_a_at” value ([2]; sample x2) was −0.3, the “Stat1 1450033_a_at” value ([2]; sample x2) was −0.5 and the “Stat1 1450034_at (Group G1, Modules 20)” value ([2]; sample x2) was −0.5. For the same substance, the “Tdrd7 1426716_at (Group G1, Modules 20)” value ([2]; sample x2) was −0.3, the “Tor1aip2 1418115_s_at” value ([2]; sample x2) was −0.4 and the “Tor1aip2 1418116_at” value ([2]; sample x2) was −0.3. The “Tor1aip2 1435526_at” value ([2]; sample x2) was −0.1, the “Trim12a 1437432_a_at” value ([2]; sample x2) was −0.6 and the “Uba7 1426970_a_at (Group G1, Modules 20)” value ([2]; sample x2) was −0.2. For the same substance, the “Adar 1425405_a_at (Group G1, Modules 20)” value ([2]; sample x3) was −0.6, the “Adar 1434268_at (Group G1, Modules 20)” value ([2]; sample x3) was −0.3 and the “Ddx58 1436562_at (Group G1, Modules 20)” value ([2]; sample x3) was −0.5. For the same substance, the “Ddx58 1456890_at (Group G1, Modules 20)” value ([2]; sample x3) was −0.4, the “Eif2ak2 1422005_at” value ([2]; sample x3) was −0.4 and the “G3bp2 1421323_a_at” value ([2]; sample x3) was −0.5. The “Gm9706///Isg15 1431591_s_at” value ([2]; sample x3) was −0.5, the “H2-T10///H2-T22///H2-T9 1449875_s_at” value ([2]; sample x3) was −0.4 and the “Ifih1 1426276_at (Group G1, Modules 20)” value ([2]; sample x3) was −0.4. The “Ifit1 1450783_at (Group G1, Modules 20)” value ([2]; sample x3) was −0.5, the “Ifit3 1449025_at (Group G1, Modules 20)” value ([2]; sample x3) was −0.5 and the “Irf7 1417244_a_at (Group G1, Modules 20)” value ([2]; sample x3) was −0.5. The “Irgm1 1418825_at (Group G1, Modules 20)” value ([2]; sample x3) was −0.6, the “Mndal 1426906_at (Group G1, Modules 20)” value ([2]; sample x3) was −0.5 and the “Pml 1448757_at (Group G1, Modules 20)” value ([2]; sample x3) was −0.4. The “Pml 1456103_at (Group G1, Modules 20)” value ([2]; sample x3) was −0.3, the “Rnf213 1455500_at (Group G1, Modules 20)” value ([2]; sample x3) was −0.5 and the “Rsad2 1436058_at (Group G1, Modules 20)” value ([2]; sample x3) was −0.5. For the same substance, the “Shisa5 1423986_a_at” value ([2]; sample x3) was −0.3, the “Shisa5 1437503_a_at” value ([2]; sample x3) was −0.4 and the “Stat1 1450033_a_at” value ([2]; sample x3) was −0.6. For the same substance, the “Stat1 1450034_at (Group G1, Modules 20)” value ([2]; sample x3) was −0.5, the “Tdrd7 1426716_at (Group G1, Modules 20)” value ([2]; sample x3) was −0.4 and the “Tor1aip2 1418115_s_at” value ([2]; sample x3) was −0.6. For the same substance, the “Tor1aip2 1418116_at” value ([2]; sample x3) was −0.2, the “Tor1aip2 1435526_at” value ([2]; sample x3) was −0.5 and the “Trim12a 1437432_a_at” value ([2]; sample x3) was −0.5. The “Uba7 1426970_a_at (Group G1, Modules 20)” value ([2]; sample x3) was −0.6.
